Data published in US5840684A, “Glycopeptide antibiotic derivatives” (Eli Lilly and Company, priority 1995, dated 1998).
Values after ≈ are worked out from the molar mass of the structure shown. Where two headings read alike, the source gives them in different places.

Experiments:
[1] = test system: vancomycin-resistant enterococci; assay: broth micro-dilution, mean geometric MIC; assay type: cell-based, Enterococcus faecium and Enterococcus faecalis; settings: for mean geometric MIC, Vancomycin Resistant Strains: enterococci, 24-hour incubation
[2] = test system: Leuconostoc mesenteroides; assay: agar dilution MIC, lactic acid bacteria; assay type: cell-based
Streptococcus pneumoniae = assay: mouse protection, experimentally-induced infection; assay type: in vivo; settings: mice infected with Streptococcus pneumoniae, two doses
Streptococcus pyogenes = assay: mouse protection, experimentally-induced infection; assay type: in vivo; settings: mice infected with Streptococcus pyogenes, two doses
[3] = test system: Staphylococcus aureus SA1199B; assay type: cell-based
Method: (§1) The MIC's were determined using a standard broth micro-dilution assay.

[4] = test system: Staphylococcus aureus S13E; assay type: cell-based
Method: as §1

Leuconostoc lactis = assay: agar dilution MIC, lactic acid bacteria; assay type: cell-based
[5] = test system: Staphylococcus haemolyticus 105; assay: broth micro-dilution MIC; assay type: cell-based
Method: (§2) The formula I compounds have in vitro and in vivo activity against Gram-positive pathogenic bacteria. The MIC's were determined using a standard broth micro-dilution assay.

Escherichia coli EC14 = assay: broth micro-dilution MIC; assay type: cell-based
Method: as §2

[6] = test system: Staphylococcus haemolyticus 415; assay: broth micro-dilution MIC; assay type: cell-based
Method: as §2

[7] = test system: Streptococcus pneumoniae P1; assay: broth micro-dilution MIC; assay type: cell-based
Method: as §2

Entercoccus faecium 2041 = assay: broth micro-dilution MIC; assay type: cell-based
Method: as §2

Entercoccus faecium 180 = assay: broth micro-dilution MIC; assay type: cell-based
Method: as §2

[8] = test system: Staphylococcus epidermidis 270; assay: broth micro-dilution MIC; assay type: cell-based
Method: as §2

[9] = test system: Enterococcus gallinarum 245; assay: broth micro-dilution MIC; assay type: cell-based
Method: as §2

Pediococcus pentosaceus = assay: agar dilution MIC, lactic acid bacteria; assay type: cell-based
[10] = test system: Leuconostoc pseudomesenteroides; assay: agar dilution MIC, lactic acid bacteria; assay type: cell-based
[11] = test system: vancomycin-susceptible enterococci; assay: broth micro-dilution, mean geometric MIC; assay type: cell-based, Enterococcus faecium and Enterococcus faecalis; settings: for mean geometric MIC, Vancomycin Sensitive Strains: enterococci, 24-hour incubation
Pediococcus acidilacti = assay: agar dilution MIC, lactic acid bacteria; assay type: cell-based
Leuconostoc citreum = assay: agar dilution MIC, lactic acid bacteria; assay type: cell-based
Stapylococcus aureus = assay: mouse protection, experimentally-induced infection; assay type: in vivo; settings: mice infected with Stapylococcus aureus, two doses
[12] = test system: Staphylococcus aureus SA1199; assay: broth micro-dilution MIC; assay type: cell-based
Method: as §1

[13] = test system: Staphylococcus aureus 446; assay: broth micro-dilution MIC; assay type: cell-based
Method: as §1

[14] = test system: Staphylococcus aureus 447; assay: broth micro-dilution MIC; assay type: cell-based
Method: as §1

[15] = test system: Staphylococcus aureus 489; assay: broth micro-dilution MIC; assay type: cell-based
Method: as §1

Entercoccus faecium 276 = assay: broth micro-dilution MIC; assay type: cell-based
Method: as §1

[16] = test system: Staphylococcus aureus 491; assay: broth micro-dilution MIC; assay type: cell-based
Method: as §1

[17] = test system: Staphylococcus aureus X400; assay: broth micro-dilution MIC; assay type: cell-based
Method: as §1

[18] = test system: Staphylococcus aureus SA1199A; assay: broth micro-dilution MIC; assay type: cell-based
Method: as §1

[19] = test system: Staphylococcus aureus X778; assay: broth micro-dilution MIC; assay type: cell-based
Method: as §1

[20] = test system: Streptococcus pyogenes C203; assay: broth micro-dilution MIC; assay type: cell-based
Method: as §1

[21] = test system: Entercoccus faecium 180-1; assay: broth micro-dilution MIC; assay type: cell-based
Method: as §1

Lactobacillus confusus = assay: agar dilution MIC, lactic acid bacteria; assay type: cell-based
[22] = test system: Haemophilus influenzae RD; assay: broth micro-dilution MIC; assay type: cell-based; settings: Haemophilus influenzae
Method: as §2

[23] = Leuconostoc mesenteroides (mean of 4), brain-heart infusion agar
[24] = Leuconostoc lactis (mean of 2), brain-heart infusion agar
[25] = Pediococcus pentosaceus (mean of 2), brain-heart infusion agar
[26] = Pediococcus acidilacti (mean of 10), brain-heart infusion agar
[27] = Lactobacillus confusus, brain-heart infusion agar

Row | Structure (SMILES) | mean geometric MIC, Vancomycin Resistant Strains [1] [µg/mL] | MIC [2, 23] [µg/mL] | ED50 (Streptococcus pneumoniae) [mg/kg/2] | ED50 (Streptococcus pyogenes) [mg/kg/2] | MIC [3] [µg/mL] | MIC [4] [µg/mL] | MIC (Leuconostoc lactis; [24]) [µg/mL] | MIC [5] [µg/mL] | MIC (Escherichia coli EC14) [µg/mL] | MIC [6] [µg/mL] | MIC [7] [µg/mL] | MIC (Entercoccus faecium 2041; Entercoccus faecium 2041) [µg/mL] | MIC (Entercoccus faecium 180; Entercoccus faecium 180) [µg/mL] | MIC [8] [µg/mL] | MIC (Pediococcus pentosaceus; [25]) [µg/mL] | MIC ([10]; brain-heart infusion agar) [µg/mL] | mean geometric MIC, Vancomycin Sensitive Strains [11] [µg/mL] | MIC (Pediococcus acidilacti; [26]) [µg/mL] | MIC (Leuconostoc citreum; brain-heart infusion agar) [µg/mL] | ED50 (Stapylococcus aureus) [mg/kg/2] | also measured
1 | CNC(CC(C)C)C(=O)NC1C(=O)NC(CC(N)=O)C(=O)NC2C(=O)NC3C(=O)NC(C(=O)NC(C(=O)O)c4cc(O)cc(O)c4-c4cc3ccc4O)C(OC3CC(C)(N)C(O)C(C)O3)c3ccc(c(Cl)c3)Oc3cc2cc(c3OC2OC(CO)C(O)C(O)C2OC2CC(C)(NCc3ccc(Oc4ccccc4)cc3)C(O)C(C)O2)Oc2ccc(cc2Cl)C1O (stereo not drawn) [Compound 4, p-phenoxybenzyl·A82846B] | 0.50 | 16 (≈ 9.02 µM) | 0.036 | 0.012 | ≤ 0.06 | ≤ 0.06 | 16 (≈ 9.02 µM) | 0.5 (≈ 0.282 µM) | > 64 | 0.5 (≈ 0.282 µM) | ≤ 0.06 | ≤ 0.06 | 0.125 (≈ 0.0704 µM) | ≤ 0.06 | 16 (≈ 9.02 µM) | 32 (≈ 18 µM) | 0.062 | 7.5 (≈ 4.23 µM) | 128 (≈ 72.1 µM) | 0.36 | MIC ([9]; Enterococcus gallinarum 245): ≤ 0.06 µg/mL; MIC [12]: ≤ 0.06 µg/mL; MIC [13]: ≤ 0.06 µg/mL; MIC [14]: 0.25 µg/mL (≈ 0.141 µM); MIC [15]: ≤ 0.06 µg/mL; MIC (Entercoccus faecium 276): ≤ 0.06 µg/mL; MIC [16]: ≤ 0.06 µg/mL; MIC [17]: ≤ 0.06 µg/mL; MIC [18]: ≤ 0.06 µg/mL; MIC [19]: ≤ 0.06 µg/mL; MIC [20]: ≤ 0.06 µg/mL; MIC [21]: ≤ 0.06 µg/mL; MIC (Lactobacillus confusus; [27]): 32 µg/mL (≈ 18 µM)
2 | CNC(CC(C)C)C(=O)NC1C(=O)NC(CC(N)=O)C(=O)NC2C(=O)NC3C(=O)NC(C(=O)NC(C(=O)O)c4cc(O)cc(O)c4-c4cc3ccc4O)C(OC3CC(C)(N)C(O)C(C)O3)c3ccc(c(Cl)c3)Oc3cc2cc(c3OC2OC(CO)C(O)C(O)C2OC2CC(C)(NCc3ccc(OCc4ccccc4)cc3)C(O)C(C)O2)Oc2ccc(cc2Cl)C1O (stereo not drawn) [Compound 5] | 0.50 | 8 (≈ 4.47 µM) | 0.036 | 0.039 | ≤ 0.06 | 1 (≈ 0.559 µM) | 8.0 (≈ 4.47 µM) | 2 (≈ 1.12 µM) | > 64 | 1 (≈ 0.559 µM) | ≤ 0.06 | ≤ 0.06 | ≤ 0.06 |  | 8.0 (≈ 4.47 µM) | 16 (≈ 8.95 µM) | 0.072 | 2.8 (≈ 1.57 µM) | 64 (≈ 35.8 µM) | 0.13 | MIC ([9]; Enterococcus gallinarum 245): ≤ 0.06 µg/mL; MIC [12]: 1 µg/mL (≈ 0.559 µM); MIC [13]: 1 µg/mL (≈ 0.559 µM); MIC [14]: 0.5 µg/mL (≈ 0.28 µM); MIC (Entercoccus faecium 276): ≤ 0.06 µg/mL; MIC [16]: 0.5 µg/mL (≈ 0.28 µM); MIC [18]: ≤ 0.06 µg/mL; MIC [19]: 0.5 µg/mL (≈ 0.28 µM); MIC [20]: ≤ 0.06 µg/mL; MIC [21]: ≤ 0.06 µg/mL; MIC (Lactobacillus confusus; [27]): 16 µg/mL (≈ 8.95 µM)
3 | CNC(CC(C)C)C(=O)NC1C(=O)NC(CC(N)=O)C(=O)NC2C(=O)NC3C(=O)NC(C(=O)NC(C(=O)O)c4cc(O)cc(O)c4-c4cc3ccc4O)C(OC3CC(C)(N)C(O)C(C)O3)c3ccc(c(Cl)c3)Oc3cc2cc(c3OC2OC(CO)C(O)C(O)C2OC2CC(C)(NCc3ccc(-c4ccc(-c5ccccc5)cc4)cc3)C(O)C(C)O2)Oc2ccc(cc2Cl)C1O (stereo not drawn) [Compound 36] | 0.25 | 16 (≈ 8.72 µM) | 0.31 | 0.28 | 4 (≈ 2.18 µM) | 2 (≈ 1.09 µM) | 16 (≈ 8.72 µM) | 4 (≈ 2.18 µM) |  | 8 (≈ 4.36 µM) |  | 1 (≈ 0.545 µM) | 0.25 (≈ 0.136 µM) | 2 (≈ 1.09 µM) | 16 (≈ 8.72 µM) | 32 (≈ 17.4 µM) | 0.21 | 9.2 (≈ 5.01 µM) | 32 (≈ 17.4 µM) | 0.19 | MIC [12]: 4 µg/mL (≈ 2.18 µM); MIC [13]: 8 µg/mL (≈ 4.36 µM); MIC [14]: 2 µg/mL (≈ 1.09 µM); MIC [15]: 2 µg/mL (≈ 1.09 µM); MIC (Entercoccus faecium 276): 2 µg/mL (≈ 1.09 µM); MIC [16]: 1 µg/mL (≈ 0.545 µM); MIC [17]: 4 µg/mL (≈ 2.18 µM); MIC [19]: 2 µg/mL (≈ 1.09 µM); MIC [21]: ≤ 0.06 µg/mL; MIC (Lactobacillus confusus; [27]): 32 µg/mL (≈ 17.4 µM)
4 | CN[C@H](CC(C)C)C(=O)N[C@H]1C(=O)N[C@@H](CC(N)=O)C(=O)N[C@H]2C(=O)N[C@H]3C(=O)N[C@H](C(=O)N[C@H](C(=O)O)c4cc(O)cc(O)c4-c4cc3ccc4O)[C@H](O)c3ccc(c(Cl)c3)Oc3cc2cc(c3O[C@@H]2O[C@H](CO)[C@@H](O)[C@H](O)[C@H]2O[C@H]2C[C@](C)(N)[C@H](O)[C@H](C)O2)Oc2ccc(cc2Cl)[C@H]1O [vancomycin, reference compound] |  |  | 1.1 | 0.8 |  |  |  | 16 (≈ 11 µM) | > 64 | 8 (≈ 5.52 µM) | 0.25 (≈ 0.173 µM) |  |  | 16 (≈ 11 µM) |  |  |  |  |  | 1.2 | MIC ([1]; 24 h, read-out: mean geometric MIC, Vancomycin Resistant Strains): 282 µg/mL (≈ 195 µM); MIC ([2]; Leuconostoc mesenteroides): 1020 µg/mL (≈ 707 µM); MIC (Leuconostoc lactis; Leuconostoc lactis): 1020 µg/mL (≈ 707 µM); MIC (Entercoccus faecium 2041): 2 µg/mL (≈ 1.38 µM); MIC (Entercoccus faecium 180): > 64 µg/mL; MIC [22]: > 64 µg/mL; MIC ([9]; Enterococcus gallinarum, GALLINARUM): 4 µg/mL (≈ 2.76 µM); MIC (Pediococcus pentosaceus; Pediococcus pentosaceus): 1020 µg/mL (≈ 707 µM); MIC [10]: > 1020 µg/mL; MIC ([11]; 24 h, read-out: mean geometric MIC, Vancomycin Sensitive Strains): 3.9 µg/mL (≈ 2.69 µM); MIC (Pediococcus acidilacti; Pediococcus): 891 µg/mL (≈ 615 µM); MIC (Leuconostoc citreum): > 1020 µg/mL; MIC [15]: 0.125 µg/mL (≈ 0.0863 µM); MIC [18]: 0.125 µg/mL (≈ 0.0863 µM); MIC (Lactobacillus confusus; Weissella confusa): 1020 µg/mL (≈ 707 µM)
